Test results: patent US20070219180A1, “Muscle Relaxtion Accelerator and Therapeutic Agent for Muscular Tissue Diseases Such as Muscle Relaxation Failure” (priority 2004, published 2007)

Tested on: male Wistar rats
Assay: Experiment 1: left ventricular end diastolic pressure in rats under calcium chloride and norepinephrine infusion
Format: in vivo, rat
Description: In Experiment 1, the hydrochloride of 4-[3-(4-benzylpiperidine-1-yl) propionyl]-7-methoxy-2,3,4,5-tetrahydro-1,4-benzothiazepine, the compound in the invention (hereinafter called the compound), was used as a pharmaceutically acceptable salt of the 1,4-benzothiazepine derivative. Eight-week old male Wistar rats weighing 300-330 g were used in the study. The rats were anesthetized with 1,000 mg/kg of urethane and 80 mg/kg of α-chloralose by subperitoneal injection, and natural respiration was maintained. In this experiment, 100 mg of the compound was dissolved in 1 ml of dimethylsulfoxide (DMSO) and the resulting DMSO solution of the compound was stored at 4° C. Norepinephrine solution was prepared by dissolving 1 mg of norepinephrine in 41 μl of distilled water, at an infusion speed of 40 μg/kg/min.
Firstly, continuous infusion catheters of calcium chloride solution or norepinephrine solution containing calcium chloride were inserted into the right external jugular veins of the rats, and microchip catheters (SPC-320, Millar) were inserted into the left ventricles via the right common arteries. In addition, test drug infusion catheters were inserted into the right femoral veins.
A 1-lead electrocardiogram and the left ventricular pressure were recorded simultaneously on a personal computer via an A/D converter. In order to determine the left ventricular end diastolic pressure, a pressure equivalent to the R wave of the electrocardiogram was measured at 20 heart beats every minute, and the mean of the pressure so measured was determined as the left ventricular end diastolic pressure, at the time of measuring. In the preparation step, blood pressure, pulse, and electrocardiogram of the rats were monitored for 15 minutes and allowed to stabilize, and then 5% dextrose solution containing calcium chloride (at a concentration based on the weight of the rat) was infused into the right external jugular vein for 20 minutes at 16.6 μl/min (9.0 mg/kg/min of calcium chloride).
Secondly, norepinephrine solution containing calcium chloride without changes in dosage was immediately injected at a rate of 40 μg/kg/min via the right external jugular vein. After the start of the administration, calcium chloride and norepinephrine were then continuously injected in the form of a norepinephrine solution containing calcium chloride. With continuous injection of calcium chloride and norepinephrine (in the form of a norepinephrine solution containing calcium chloride) via the right external jugular vein, 0.2 ml of […] was administered over 30 seconds to the first rat (weight: 300 g) as a control via the right femoral vein, 5 minutes after commencement of injection (intravenous injection) of calcium chloride and norepinephrine (in the form of a norepinephrine solution containing calcium chloride) via the right external jugular vein; this rat was defined as Control 1. Similarly to Control 1, with continuous injection of calcium chloride and norepinephrine (in the form of a norepinephrine solution containing calcium chloride) via the right external jugular vein, 0.2 ml of 1% DMSO solution as a solvent control was administered over 30 seconds to a second rat (weight: 310 g) via the right femoral vein, 5 minutes after commencement of injection (intravenous injection) via the right external jugular vein of calcium chloride and norepinephrine (in the form of a norepinephrine solution containing calcium chloride); this rat was defined as Control 2. […]

COc1ccc2c(c1)CN(C(=O)CCN1CCC(Cc3ccccc3)CC1)CCS2 [the compound, 4-[3-(4-benzylpiperidine-1-yl)propionyl]-7-methoxy-2,3,4,5-tetrahydro-1,4-benzothiazepine]
Left ventricular diastolic pressure compared with Controls 1 and 2 at the same time point (15 minutes after commencement of the test drug, Test drugs 1 and 2): less than half those in Controls 1 and 2
Left ventricular end diastolic pressure (Test drug 1: 0.3 mg/kg i.v. over 30 s + 0.02 mg/kg/min to 15 min, 0 minutes (just before the start of test drug administration)): 8.9 mmHg
Left ventricular end diastolic pressure (Test drug 1: 0.3 mg/kg i.v. over 30 s + 0.02 mg/kg/min to 15 min, 5 minutes before test drug (just before the start of norepinephrine), baseline): 8.6 mmHg
Left ventricular end diastolic pressure (Test drug 1: 0.3 mg/kg i.v. over 30 s + 0.02 mg/kg/min to 15 min, 10 minutes before test drug (15 minutes after the start of CaCl2), baseline): 8.5 mmHg
Left ventricular end diastolic pressure (Test drug 1: 0.3 mg/kg i.v. over 30 s + 0.02 mg/kg/min to 15 min, 15 minutes before test drug (10 minutes after the start of CaCl2), baseline): 8.6 mmHg
Left ventricular end diastolic pressure (Test drug 1: 0.3 mg/kg i.v. over 30 s + 0.02 mg/kg/min to 15 min, 20 minutes before test drug (5 minutes after the start of CaCl2), baseline): 7.9 mmHg
Left ventricular end diastolic pressure (Test drug 1: 0.3 mg/kg i.v. over 30 s + 0.02 mg/kg/min to 15 min, 25 minutes before test drug (just after the start of CaCl2), baseline): 7.8 mmHg
Left ventricular end diastolic pressure (Test drug 1: 0.3 mg/kg i.v. over 30 s + 0.02 mg/kg/min to 15 min, CaCl2 + norepinephrine infusion, 5 minutes after the start of test drug administration): 10.6 mmHg
Left ventricular end diastolic pressure (Test drug 1: 0.3 mg/kg i.v. over 30 s + 0.02 mg/kg/min to 15 min, CaCl2 + norepinephrine infusion, 10 minutes after the start of test drug administration): 12.5 mmHg
Left ventricular end diastolic pressure (Test drug 1: 0.3 mg/kg i.v. over 30 s + 0.02 mg/kg/min to 15 min, CaCl2 + norepinephrine infusion, 15 minutes after the start of test drug administration): 11.8 mmHg
Left ventricular end diastolic pressure (Test drug 1: 0.3 mg/kg i.v. over 30 s + 0.02 mg/kg/min to 15 min, CaCl2 + norepinephrine infusion, 30 minutes before test drug (5 minutes before the start of CaCl2), baseline): 7.5 mmHg
Left ventricular end diastolic pressure (Test drug 2: 0.3 mg/kg i.v. over 30 s only, 0 minutes (just before the start of test drug administration)): 9.6 mmHg
Left ventricular end diastolic pressure (Test drug 2: 0.3 mg/kg i.v. over 30 s only, 5 minutes before test drug (just before the start of norepinephrine), baseline): 9.3 mmHg
Left ventricular end diastolic pressure (Test drug 2: 0.3 mg/kg i.v. over 30 s only, 10 minutes before test drug (15 minutes after the start of CaCl2), baseline): 9.0 mmHg
Left ventricular end diastolic pressure (Test drug 2: 0.3 mg/kg i.v. over 30 s only, 15 minutes before test drug (10 minutes after the start of CaCl2), baseline): 9.2 mmHg
Left ventricular end diastolic pressure (Test drug 2: 0.3 mg/kg i.v. over 30 s only, 20 minutes before test drug (5 minutes after the start of CaCl2), baseline): 8.8 mmHg
Left ventricular end diastolic pressure (Test drug 2: 0.3 mg/kg i.v. over 30 s only, 25 minutes before test drug (just after the start of CaCl2), baseline): 8.6 mmHg
Left ventricular end diastolic pressure (Test drug 2: 0.3 mg/kg i.v. over 30 s only, CaCl2 + norepinephrine infusion, 5 minutes after the start of test drug administration): 13.8 mmHg
Left ventricular end diastolic pressure (Test drug 2: 0.3 mg/kg i.v. over 30 s only, CaCl2 + norepinephrine infusion, 10 minutes after the start of test drug administration): 16.4 mmHg
Left ventricular end diastolic pressure (Test drug 2: 0.3 mg/kg i.v. over 30 s only, CaCl2 + norepinephrine infusion, 15 minutes after the start of test drug administration): 15.3 mmHg
Left ventricular end diastolic pressure (Test drug 2: 0.3 mg/kg i.v. over 30 s only, CaCl2 + norepinephrine infusion, 30 minutes before test drug (5 minutes before the start of CaCl2), baseline): 8.4 mmHg
